# Test results taken from patent publication US9156831B2, “Chemical compounds” (ASTRAZENECA AB, priority 2013, dated 2015).
# Columns and labels:
# MCF7 xenograft = experiment: Tumour growth inhibition, MCF7 xenograft model; assay type: in vivo, mouse; details: Example 3 alone 25 mg/kg twice daily every day; FIG. 12
# Description: MCF7 is an estrogen receptor positive breast tumour cell line carrying a mutation in the PIKC3CA gene (E545K). […] SCID mice (AZ UK) were transplanted subcutaneously (s.c.) with human breast adenocarcinoma cell line MCF7 (ICRF London) to determine anti-tumour activity of PI3 kinase inhibitors. Mice were implanted with a 0.5 mg 21 day oestrogen pellet (Innovative Research of America) 24 hours prior to cell implantation. 5×10^6 cells in 50% matrigel (BD Bioscience) were injected s.c. on the left flank of the animals.
# (§1) Animals were randomised into groups of 10-15 when tumours reached a volume of ˜200-300 mm^3 and treatment commenced. Animals were dosed for 3-4 weeks by peroral route, with compound in a suitable vehicle at defined doses and schedules. Tumours were measured two-three times weekly by caliper and volume of tumours calculated using elliptical formula (pi/6×width×width×length).
# HCC70 xenograft = experiment: Tumour growth inhibition, HCC70 xenograft model; assay type: in vivo, mouse; details: Example 3 alone 25 mg/kg BID every day; FIG. 13
# Description: HCC70 is breast tumour cell line which is deficient in PTEN gene expression. Female Swiss athymic nude mice (swiss nu/nu—AZUK) were transplanted subcutaneously with the breast ductal epithelial tumour cell line HCC70 (ATCC—CRL2315) cells. 1×10^6 cells in 50% matrigel (BD Bioscience) were injected s.c. on the left flank of the animals.
# as §1
# MV411 = experiment: Cell proliferation assay (MTS); assay type: cell-based, human
# Description: (§2) The sensitivity of a panel of human cancer cell lines to the effects of compounds was determined in a standard proliferation assay.
# (§3) Cells were plated in 96 well plates at densities of 1000-6000 cells per well in RPMI media containing 10% FBS. After incubation at 37° C. for 16 hours, various concentrations of compound were added to the assay plates. After incubation for an additional 72 h, the viable cells were determined by the addition of MTS reagent (Promega #3582) to each well for 2 h. MTS is a tetrazolium salt that is bioreduced by metabolically active cells in the presence of an electron coupling reagent to formazan. The formazan product was then quantitated by absorbance at 490 nm, as an indicator of the relative number of live cells. In order to determine the GI50 (concentration at which growth of cells was inhibited by 50%) the relative number of cells present at the time of drug addition was determined by comparison with the MTS readout before the drug was added, and this value was subtracted from the 72 hr value of untreated cells as a measure of cell growth during the assay.
# MDAMB453 = experiment: Cell proliferation assay (MTS); assay type: cell-based, human
# Description: (§4) The sensitivity of a panel of human cancer cell lines to the effects of compounds was determined in a standard proliferation assay. Cell lines were sourced through the AstraZeneca Cell Bank.
# as §3
# THP1 = experiment: Cell proliferation assay (MTS); assay type: cell-based, human
# Description: as §4, §3
# BFTC905 = experiment: Cell proliferation assay (MTS); assay type: cell-based, human
# Description: as §2
# (§5) Cells were plated in 96 well plates at densities of 1000-6000 cells per well in RPMI media containing 10% FBS. After incubation at 37° C. for 16 hours, various concentrations of compound were added to the assay plates. After incubation for an additional 72 h, the viable cells were determined by the addition of MTS reagent (Promega #3582) to each well for 2 h. […] The formazan product was then quantitated by absorbance at 490 nm, as an indicator of the relative number of live cells. In order to determine the GI50 (concentration at which growth of cells was inhibited by 50%) the relative number of cells present at the time of drug addition was determined by comparison with the MTS readout before the drug was added, and this value was subtracted from the 72 hr value of untreated cells as a measure of cell growth during the assay.
# SKCO1 = experiment: Cell proliferation assay (MTS); assay type: cell-based, human
# Description: as §2, §5
# SUM52PE = experiment: Cell proliferation assay (MTS); assay type: cell-based, human
# Description: as §2, §3
# ASPC1 = experiment: Cell proliferation assay (MTS); assay type: cell-based, human
# Description: as §2, §3
# HARA = experiment: Cell proliferation assay (MTS); assay type: cell-based, human
# Description: as §2, §3
# OCUM1 = experiment: Cell proliferation assay (MTS); assay type: cell-based, human
# Description: as §4, §3
# MONOMAC6 = experiment: Cell proliferation assay (MTS); assay type: cell-based, human
# Description: as §2, §3
# SNU620 = experiment: Cell proliferation assay (MTS); assay type: cell-based, human
# Description: as §4, §3
# CFPAC1 = experiment: Cell proliferation assay (MTS); assay type: cell-based, human
# Description: as §4, §3
# MOLM16 = experiment: Cell proliferation assay (MTS); assay type: cell-based, human
# Description: as §2, §3
# H1869 = experiment: Cell proliferation assay (MTS); assay type: cell-based, human
# Description: as §2, §3
# SNU638 = experiment: Cell proliferation assay (MTS); assay type: cell-based, human
# Description: as §4, §3
# LS180 = experiment: Cell proliferation assay (MTS); assay type: cell-based, human
# Description: as §2, §5
# H23 = experiment: Cell proliferation assay (MTS); assay type: cell-based, human
# Description: as §4, §3
# CAPAN2 = experiment: Cell proliferation assay (MTS); assay type: cell-based, human
# Description: as §2, §5
# HLE = experiment: Cell proliferation assay (MTS); assay type: cell-based, human
# Description: as §2, §5
# SNU1 = experiment: Cell proliferation assay (MTS); assay type: cell-based, human
# Description: as §4, §3
# SNU886 = experiment: Cell proliferation assay (MTS); assay type: cell-based, human
# Description: as §2, §5
# HCC1806 = experiment: Cell proliferation assay (MTS); assay type: cell-based, human
# Description: as §2, §3
# WSUDLCL2 = experiment: Cell proliferation assay (MTS); assay type: cell-based, human
# Description: as §2, §5
# SW780 = experiment: Cell proliferation assay (MTS); assay type: cell-based, human
# Description: as §2, §3
# 1A6 = experiment: Cell proliferation assay (MTS); assay type: cell-based, human
# Description: as §2, §3
# CC20 = experiment: Cell proliferation assay (MTS); assay type: cell-based, human
# Description: as §2, §3
# H1299 = experiment: Cell proliferation assay (MTS); assay type: cell-based, human
# Description: as §2, §3
# H838 = experiment: Cell proliferation assay (MTS); assay type: cell-based, human
# Description: as §2, §3
# HEL9217 = experiment: Cell proliferation assay (MTS); assay type: cell-based, human
# Description: as §4, §3
# KU1919 = experiment: Cell proliferation assay (MTS); assay type: cell-based, human
# Description: as §2, §3
# MDAMB436 = experiment: Cell proliferation assay (MTS); assay type: cell-based, human
# Description: as §2, §3
# MEC1 = experiment: Cell proliferation assay (MTS); assay type: cell-based, human
# Description: as §2, §3
# MKN74 = experiment: Cell proliferation assay (MTS); assay type: cell-based, human
# Description: as §2, §3
# RAJI = experiment: Cell proliferation assay (MTS); assay type: cell-based, human
# Description: as §2, §3
# [1] = Homo sapiens, Breast, PIK3CA WT
# [2] = Homo sapiens, Stomach, PIK3CA WT
# [3] = Homo sapiens, Blood/lymph, PIK3CA WT
# [4] = Homo sapiens, Bladder, PIK3CA WT
structure (smiles),measurement,setting,value
"CCn1nc(C2CCN(C(=O)CCO)CC2)nc1-c1cnc(N)c(-c2nnc(C(C)(C)C)o2)n1 [Example 3, 1-(4-(5-(5-amino-6-(5-tert-butyl-1,3,4-oxadiazol-2-yl)pyrazin-2-yl)-1-ethyl-1H-1,2,4-triazol-3-yl)piperidin-1-yl)-3-hydroxypropan-1-one]",tumour growth,MCF7 xenograft,caused some tumour regression
same,tumour growth,HCC70 xenograft,inhibited growth more strongly
same,Category,MV411,Sensitive (sensitive (GI50<=1.0 μM))
same,GI50,"MV411; Homo sapiens, MV4-11, Blood/lymph, PIK3CA WT",0.382 µM
same,Category,MDAMB453,Sensitive (sensitive (GI50<=1.0 μM))
same,GI50,"MDAMB453; Homo sapiens, MDA-MB-453, Breast, PIK3CA MUT",0.456 µM
same,Category,THP1,Sensitive (sensitive (GI50<=1.0 μM))
same,GI50,"THP1; Homo sapiens, THP-1, Blood/lymph, PIK3CA WT",0.528 µM
same,Category,BFTC905,Sensitive (sensitive (GI50<=1.0 μM))
same,GI50,"BFTC905; Homo sapiens, BFTC-905, Bladder, PIK3CA WT",0.966 µM
same,Category,SKCO1,Resistant (resistant (GI50>1.0 μM))
same,GI50,"SKCO1; Homo sapiens, SK-CO-1, Colon, PIK3CA WT",1.13 µM
same,Category,SUM52PE,Resistant (resistant (GI50>1.0 μM))
same,GI50,SUM52PE; [1],1.15 µM
same,Category,ASPC1,Resistant (resistant (GI50>1.0 μM))
same,GI50,"ASPC1; Homo sapiens, Pancreas, PIK3CA WT",1.74 µM
same,Category,HARA,Resistant (resistant (GI50>1.0 μM))
same,GI50,"HARA; Homo sapiens, Lung, PIK3CA WT",1.91 µM
same,Category,OCUM1,Resistant (resistant (GI50>1.0 μM))
same,GI50,OCUM1; [2],2.33 µM
same,Category,MONOMAC6,Resistant (resistant (GI50>1.0 μM))
same,GI50,"MONOMAC6; Homo sapiens, MONO-MAC-6, Blood/lymph, PIK3CA WT",2.62 µM
same,Category,SNU620,Resistant (resistant (GI50>1.0 μM))
same,GI50,SNU620; [2],3.14 µM
same,Category,CFPAC1,Resistant (resistant (GI50>1.0 μM))
same,GI50,"CFPAC1; Homo sapiens, CFPAC-1, Pancreas, PIK3CA WT",3.38 µM
same,Category,MOLM16,Resistant (resistant (GI50>1.0 μM))
same,GI50,MOLM16; [3],4.6 µM
same,Category,H1869,Resistant (resistant (GI50>1.0 μM))
same,GI50,"H1869; Homo sapiens, Lung, PIK3CA WT",6.04 µM
same,Category,SNU638,Resistant (resistant (GI50>1.0 μM))
same,GI50,"SNU638; Homo sapiens, SNU-638, Stomach, PIK3CA WT",8.22 µM
same,Category,LS180,Resistant (resistant (GI50>1.0 μM))
same,GI50,"LS180; Homo sapiens, Colon, PIK3CA MUT",9.94 µM
same,Category,H23,Resistant (resistant (GI50>1.0 μM))
same,GI50,"H23; Homo sapiens, NCI-H23, Lung, PIK3CA WT",12.3 µM
same,Category,CAPAN2,Resistant (resistant (GI50>1.0 μM))
same,GI50,"CAPAN2; Homo sapiens, Capan-2, Pancreas, PIK3CA WT",13.4 µM
same,Category,HLE,Resistant (resistant (GI50>1.0 μM))
same,GI50,"HLE; Homo sapiens, Liver, PIK3CA WT",13.5 µM
same,Category,SNU1,Resistant (resistant (GI50>1.0 μM))
same,GI50,SNU1; [2],15 µM
same,Category,SNU886,Resistant (resistant (GI50>1.0 μM))
same,GI50,"SNU886; Homo sapiens, SNU-886, Liver, PIK3CA WT",15.6 µM
same,Category,HCC1806,Resistant (resistant (GI50>1.0 μM))
same,GI50,HCC1806; [1],16.7 µM
same,Category,WSUDLCL2,Resistant (resistant (GI50>1.0 μM))
same,GI50,WSUDLCL2; [3],17.7 µM
same,Category,SW780,Resistant (resistant (GI50>1.0 μM))
same,GI50,SW780; [4],19.2 µM
same,Category,1A6,Resistant (resistant (GI50>1.0 μM))
same,GI50,1A6; [4],30 µM
same,Category,CC20,Resistant (resistant (GI50>1.0 μM))
same,GI50,"CC20; Homo sapiens, Colon, PIK3CA WT",30 µM
same,Category,H1299,Resistant (resistant (GI50>1.0 μM))
same,GI50,"H1299; Homo sapiens, NCI-H1299, Lung, PIK3CA WT",30 µM
same,Category,H838,Resistant (resistant (GI50>1.0 μM))
same,GI50,"H838; Homo sapiens, NCI-H838, Lung, PIK3CA WT",30 µM
same,Category,HEL9217,Resistant (resistant (GI50>1.0 μM))
same,GI50,"HEL9217; Homo sapiens, HEL 92.1.7, Blood/lymph, PIK3CA INCON",30 µM
same,Category,KU1919,Resistant (resistant (GI50>1.0 μM))
same,GI50,"KU1919; Homo sapiens, KU-19-19, Bladder, PIK3CA WT",30 µM
same,Category,MDAMB436,Resistant (resistant (GI50>1.0 μM))
same,GI50,"MDAMB436; Homo sapiens, MDA-MB-436, Breast, PIK3CA WT",30 µM
same,Category,MEC1,Resistant (resistant (GI50>1.0 μM))
same,GI50,MEC1; [3],30 µM
same,Category,MKN74,Resistant (resistant (GI50>1.0 μM))
same,GI50,"MKN74; Homo sapiens, MKN-74, Stomach, PIK3CA WT",30 µM
same,Category,RAJI,Resistant (resistant (GI50>1.0 μM))
same,GI50,RAJI; [3],30 µM
